Data as given in PubChem BioAssay (NCI).
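Tested at 5 concentrations; 48 h exposure; 96-well plates; endpoints linearly interpolated, else capped at highest concentration. GI50 is the concentration that inhibits growth by half. Definition used: TGI = concentration required for complete inhibition of growth.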

How the values were obtained:
Experiment in all cases: NCI anticancer screen, dose series, 48 h
[1] = tested on: SNB-75 CNS
[2] = tested on: SF-539 CNS
[3] = tested on: K-562 leukemia
[4] = tested on: TK-10 renal
[5] = tested on: LOX IMVI melanoma
[6] = tested on: U251 CNS
[7] = tested on: EKVX NSCLC
[8] = tested on: SR leukemia
[9] = tested on: KM12 colon
[10] = tested on: T-47D breast
[11] = tested on: MCF7 breast
[12] = tested on: OVCAR-4 ovarian
[13] = tested on: A498 renal
[14] = tested on: PC-3 prostate
[15] = tested on: SK-MEL-28 melanoma
[16] = tested on: HS 578T breast
[17] = tested on: SNB-19 CNS
[18] = tested on: UACC-257 melanoma
[19] = tested on: MDA-MB-435
[20] = tested on: SN12C renal
[21] = tested on: CAKI-1 renal
[22] = tested on: COLO 205 colon
[23] = tested on: OVCAR-8 ovarian
[24] = tested on: UO-31 renal
[25] = tested on: NCI-H23 lung
[26] = tested on: SW-620 colon
[27] = tested on: NCI/ADR-RES ovarian
[28] = tested on: OVCAR-5 ovarian
[29] = tested on: NCI-H460 lung
[30] = tested on: MALME-3M melanoma
[31] = tested on: SK-MEL-5 melanoma
[32] = tested on: HOP-62 NSCLC
[33] = tested on: OVCAR-3 ovarian
[34] = tested on: A549 NSCLC
[35] = tested on: SF-268 CNS
[36] = tested on: 786-0 renal
[37] = tested on: MOLT-4 leukemia
[38] = tested on: M14 melanoma
[39] = tested on: HCT-116 colon
[40] = tested on: CCRF-CEM leukemia
[41] = tested on: UACC-62 melanoma
[42] = tested on: NCI-H522 lung
[43] = tested on: RPMI-8226 leukemia
[44] = tested on: MDA-MB-231 breast
[45] = tested on: IGROV1 ovarian
[46] = tested on: HL-60(TB) leukemia
[47] = tested on: NCI-H226 lung
[48] = tested on: HT29 colon
[49] = tested on: HCT-15 colon
[50] = tested on: RXF 393 renal
[51] = tested on: SF-295 CNS
[52] = tested on: SK-MEL-2 melanoma
[53] = tested on: BT-549 breast
[54] = tested on: HOP-92 NSCLC
[55] = tested on: SK-OV-3 ovarian
[56] = tested on: ACHN renal
[57] = tested on: DU-145 prostate
[58] = tested on: HCC-2998 colon

Question: `COc1ccc(C2=NNC(=O)c3ccccc3N2c2nc(-c3cccs3)nc3ccc(Br)cc23)cc1` was tested. Which TGI [1] did it give?
Answer: > 100 µM

Question: And the TGI [2]?
Answer: 39.3 µM

Question: And the TGI [3]?
Answer: > 100 µM

Question: And the TGI [4]?
Answer: 72.8 µM

Question: What about the TGI [5] of the same compound?
Answer: > 100 µM

Question: And the TGI [6]?
Answer: > 100 µM

Question: What about the TGI [7] of the same compound?
Answer: 91.5 µM

Question: What about the TGI [8] of the same compound?
Answer: > 100 µM

Question: And the TGI [9]?
Answer: > 100 µM

Question: What about the TGI [10] of the same compound?
Answer: > 100 µM

Question: And the TGI [11]?
Answer: > 100 µM

Question: What about the TGI [12] of the same compound?
Answer: > 100 µM

Question: What about the TGI [13] of the same compound?
Answer: > 100 µM

Question: What about the TGI [14] of the same compound?
Answer: 91.4 µM

Question: What about the TGI [15] of the same compound?
Answer: > 100 µM

Question: What about the TGI [16] of the same compound?
Answer: > 100 µM

Question: And the TGI [17]?
Answer: > 100 µM

Question: What about the TGI [18] of the same compound?
Answer: > 100 µM

Question: And the TGI [19]?
Answer: > 100 µM

Question: What about the TGI [20] of the same compound?
Answer: > 100 µM

Question: What about the TGI [21] of the same compound?
Answer: > 100 µM

Question: What about the TGI [22] of the same compound?
Answer: > 100 µM

Question: What about the TGI [23] of the same compound?
Answer: > 100 µM

Question: And the TGI [24]?
Answer: > 100 µM

Question: And the TGI [25]?
Answer: > 100 µM

Question: And the TGI [26]?
Answer: > 100 µM

Question: And the TGI [27]?
Answer: 62.4 µM

Question: And the TGI [28]?
Answer: > 100 µM

Question: What about the TGI [29] of the same compound?
Answer: > 100 µM

Question: And the TGI [30]?
Answer: 75.9 µM

Question: And the TGI [31]?
Answer: > 100 µM

Question: What about the TGI [32] of the same compound?
Answer: 49.5 µM

Question: And the TGI [33]?
Answer: 52.5 µM

Question: What about the TGI [34] of the same compound?
Answer: > 100 µM

Question: What about the TGI [35] of the same compound?
Answer: > 100 µM

Question: What about the TGI [36] of the same compound?
Answer: 82 µM

Question: What about the TGI [37] of the same compound?
Answer: > 100 µM

Question: And the TGI [38]?
Answer: > 100 µM

Question: And the TGI [39]?
Answer: > 100 µM

Question: What about the TGI [40] of the same compound?
Answer: > 100 µM

Question: What about the TGI [41] of the same compound?
Answer: > 100 µM

Question: What about the TGI [42] of the same compound?
Answer: > 100 µM

Question: And the TGI [43]?
Answer: > 100 µM

Question: What about the TGI [44] of the same compound?
Answer: > 100 µM

Question: And the TGI [45]?
Answer: > 100 µM

Question: What about the TGI [46] of the same compound?
Answer: > 100 µM

Question: What about the TGI [47] of the same compound?
Answer: 73.7 µM

Question: What about the TGI [48] of the same compound?
Answer: > 100 µM

Question: What about the TGI [49] of the same compound?
Answer: > 100 µM

Question: What about the TGI [50] of the same compound?
Answer: > 100 µM

Question: What about the TGI [51] of the same compound?
Answer: 55.1 µM

Question: What about the TGI [52] of the same compound?
Answer: > 100 µM

Question: What about the TGI [53] of the same compound?
Answer: > 100 µM

Question: What about the TGI [54] of the same compound?
Answer: > 100 µM

Question: What about the TGI [55] of the same compound?
Answer: > 100 µM

Question: And the TGI [56]?
Answer: > 100 µM

Question: And the TGI [57]?
Answer: > 100 µM

Question: What does the source list for `CN1N=Nc2c(C(F)(F)F)nn(-c3ccccc3)c2N(C)C1=O`?
Answer: GI50 [1]: > 100 µM; TGI [1]: > 100 µM; GI50 [2]: > 100 µM; TGI [2]: > 100 µM; GI50 [3]: > 56.4 µM; TGI [3]: > 100 µM; GI50 [4]: > 100 µM; TGI [4]: > 100 µM; GI50 [5]: > 100 µM; TGI [5]: > 100 µM; GI50 [6]: > 100 µM; TGI [6]: > 100 µM; GI50 [7]: > 100 µM; TGI [7]: > 100 µM; GI50 [8]: > 100 µM; TGI [8]: > 100 µM; GI50 [9]: > 100 µM; TGI [9]: > 100 µM; GI50 [10]: > 100 µM; TGI [10]: > 100 µM; GI50 [11]: > 100 µM; TGI [11]: > 100 µM; GI50 [12]: > 100 µM; TGI [12]: > 100 µM; GI50 [13]: > 100 µM; TGI [13]: > 100 µM; GI50 [14]: > 100 µM; TGI [14]: > 100 µM; GI50 [15]: > 100 µM; TGI [15]: > 100 µM; GI50 [16]: > 100 µM; TGI [16]: > 100 µM; GI50 [17]: > 100 µM; TGI [17]: > 100 µM; GI50 [18]: > 100 µM; TGI [18]: > 100 µM; GI50 [19]: > 100 µM; TGI [19]: > 100 µM; GI50 [20]: > 100 µM; TGI [20]: > 100 µM; GI50 [21]: > 100 µM; TGI [21]: > 100 µM; GI50 [22]: > 47.9 µM; TGI [22]: > 70.4 µM; TGI [23]: > 100 µM; GI50 [24]: > 100 µM; TGI [24]: > 100 µM; GI50 [25]: > 100 µM; TGI [25]: > 100 µM; GI50 [26]: > 100 µM; TGI [26]: > 100 µM; GI50 [27]: > 100 µM; TGI [27]: > 100 µM; GI50 [28]: > 100 µM; TGI [28]: > 100 µM; GI50 [29]: > 100 µM; TGI [29]: > 100 µM; GI50 [30]: > 100 µM; TGI [30]: > 100 µM; GI50 [31]: > 100 µM; TGI [31]: > 100 µM; GI50 [32]: > 100 µM; TGI [32]: > 100 µM; GI50 [33]: > 100 µM; TGI [33]: > 100 µM; GI50 [34]: > 100 µM; TGI [34]: > 100 µM; GI50 [35]: > 100 µM; TGI [35]: > 100 µM; GI50 [36]: > 100 µM; TGI [36]: > 100 µM; TGI [37]: > 45.3 µM; GI50 [38]: > 100 µM; TGI [38]: > 100 µM; GI50 [39]: > 100 µM; TGI [39]: > 100 µM; GI50 [41]: > 100 µM; TGI [41]: > 100 µM; GI50 [42]: > 100 µM; TGI [42]: > 100 µM; GI50 [43]: > 56 µM; TGI [43]: > 100 µM; GI50 [44]: > 100 µM; TGI [44]: > 100 µM; GI50 [45]: > 100 µM; TGI [45]: > 100 µM; GI50 [46]: > 32 µM; TGI [46]: > 52.7 µM; GI50 [47]: > 100 µM; TGI [47]: > 100 µM; GI50 [58]: > 100 µM; TGI [58]: > 100 µM; GI50 [48]: > 100 µM; TGI [48]: > 100 µM; GI50 [49]: > 100 µM; TGI [49]: > 100 µM; TGI [50]: > 100 µM; GI50 [51]: > 100 µM; TGI [51]: > 100 µM; GI50 [52]: > 100 µM; TGI [52]: > 100 µM; GI50 [53]: > 100 µM; TGI [53]: > 100 µM; GI50 [54]: > 100 µM; TGI [54]: > 100 µM; GI50 [55]: > 100 µM; TGI [55]: > 100 µM; GI50 [56]: > 100 µM; TGI [56]: > 100 µM; GI50 [57]: > 100 µM; TGI [57]: > 100 µM
